Key:
[1] = biological target: hOX1R (Homo sapiens, UniProt O43613); experiment: FLIPR Ca2+ flux assay, hOX1R; assay type: cell-based; details: CHO cells; agonist 70 pM Ala-6,12 orexin-A; rat orexin-1 receptor; read-out: hOX1R FLIPR IC50
[2] = biological target: human orexin-2 receptor (Homo sapiens (Human), UniProt O43614); experiment: FLIPR Ca2+ flux assay, hOX2R; assay type: cell-based; details: CHO cells expressing human orexin-2 receptor; agonist 70 pM Ala-6,12 orexin-A
Description: In a typical experiment the OX1 and OX2 receptor antagonistic activity of the compounds of the present invention was determined in accordance with the following experimental method. For intracellular calcium measurements, Chinese hamster ovary (CHO) cells expressing the rat orexin-1 receptor or the human orexin-2 receptor, are grown in Iscove's modified DMEM containing 2 mM L-glutamine, […], 1% hypoxanthine-thymidine supplement, 100 U/ml penicillin, 100 μg/ml streptomycin and 10% heat-inactivated fetal calf serum (FCS). The cells are seeded at 20,000 cells/well into Becton-Dickinson black 384-well clear bottom sterile plates coated with poly-D-lysine. All reagents were from GIBCO-Invitrogen Corp. The seeded plates are incubated overnight at 37° C. and 5% CO2. Ala-6,12 human orexin-A as the agonist is prepared as a 1 mM stock solution in 1% bovine serum albumin (BSA) and diluted in assay buffer (HBSS containing 20 mM HEPES, 0.1% BSA and 2.5 mM probenecid, pH7.4) for use in the assay at a final concentration of 70 pM. Test compounds are prepared as 10 mM stock solution in DMSO, then diluted in 384-well plates, first in DMSO, then assay buffer. On the day of the assay, cells are washed 3 times with 100 μl assay buffer and then incubated for 60 min (37° C., 5% CO2) in 60 μl assay buffer containing 1 μM Fluo-4AM ester, 0.02% pluronic acid, and 1% BSA. The dye loading solution is then aspirated and cells are washed 3 times with 100 μl assay buffer. 30 μl of that same buffer is left in each well. Within the Fluorescent Imaging Plate Reader (FLIPR, Molecular Devices), test compounds are added to the plate in a volume of 25 μl, incubated for 5 min and finally 25 μl of agonist is added. Fluorescence is measured for each well at 1 second intervals for 5 minutes and the height of each fluorescence peak is compared to the height of the fluorescence peak induced by 70 pM Ala-6,12 orexin-A with buffer in place of antagonist. […] The intrinsic orexin receptor antagonist activity of a compound which may be used in the present invention may be determined by these assays.

Chain of human orexin-2 receptor (O43614 whole entry): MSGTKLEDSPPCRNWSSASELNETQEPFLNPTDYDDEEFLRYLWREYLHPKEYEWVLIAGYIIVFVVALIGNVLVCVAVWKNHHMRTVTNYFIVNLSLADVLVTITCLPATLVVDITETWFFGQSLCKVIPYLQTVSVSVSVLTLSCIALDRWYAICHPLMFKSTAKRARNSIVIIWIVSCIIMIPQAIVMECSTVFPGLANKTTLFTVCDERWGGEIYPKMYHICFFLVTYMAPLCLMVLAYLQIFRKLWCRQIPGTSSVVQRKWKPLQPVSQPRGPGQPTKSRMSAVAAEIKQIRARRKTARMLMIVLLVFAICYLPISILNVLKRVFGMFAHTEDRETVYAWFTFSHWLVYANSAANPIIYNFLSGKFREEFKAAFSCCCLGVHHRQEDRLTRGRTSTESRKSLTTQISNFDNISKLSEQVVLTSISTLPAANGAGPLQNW

For `C[C@@H]1CC[C@@H](c2nc(C(C)(C)O)co2)CN1C(=O)c1ccccc1-n1nccn1` [Example 10, (2-(2H-1,2,3-Triazol-2-yl)phenyl)((2R,5R)-5-(4-(2-hydroxypropan-2-yl)oxazol-2-yl)-2-methylpiperidin-1-yl)methanone], which IC50 [1] is on record?
Its IC50 is 2700 nM.

And the IC50 [2]?
The IC50 was 59 nM.

Which IC50 [1] does the source give for `C[C@@H]1CC[C@@H](c2nc(C#N)c(Br)o2)CN1C(=O)c1ccccc1-n1nccn1` [Example 11, 2-((3R,6R)-1-(2-(2H-1,2,3-Triazol-2-yl)benzoyl)-6-methylpiperidin-3-yl)-5-bromooxazole-4-carbonitrile] here?
Its IC50 is over 10000 nM.

What about the IC50 [2] of the same compound?
The IC50 was 350 nM.

For `COC(=O)c1nc([C@@H]2CC[C@@H](C)N(C(=O)c3ccccc3-n3nccn3)C2)oc1Br` [Example 12, Methyl 2-((3R,6R)-1-(2-(2H-1,2,3-Triazol-2-yl)benzoyl)-6-methylpiperidin-3-yl)-5-bromooxazole-4-carboxylate], which IC50 [1] is on record?
The IC50 was 875 nM.

And the IC50 [2]?
The IC50 was 30 nM.

Which IC50 [1] does the source give for `Cc1oc([C@@H]2CC[C@@H](C)N(C(=O)c3ccccc3-n3nccn3)C2)nc1C(C)(C)O` [Example 13, (2-(2H-1,2,3-Triazol-2-yl)phenyl)((2R,5R)-5-(4-(2-hydroxypropan-2-yl)-5-methyloxazol-2-yl)-2-methylpiperidin-1-yl)methanone] here?
The IC50 was 815 nM.

And the IC50 [2]?
Its IC50 is 12.8 nM.

What does the source list for `C[C@@H]1CC[C@@H](c2nc(C(C)(C)O)c(C3CC3)o2)CN1C(=O)c1ccccc1-n1nccn1` [Example 14, (2-(2H-1,2,3-Triazol-2-yl)phenyl)((2R,5R)-5-(5-cyclopropyl-4-(2-hydroxypropan-2-yl)oxazol-2-yl)-2-methylpiperidin-1-yl)methanone]?
IC50 [1]: 21 nM; IC50 [2]: 19 nM

How did the IC50 [1] turn out when `CC(C)c1oc([C@@H]2CC[C@@H](C)N(C(=O)c3ccccc3-n3nccn3)C2)nc1C(C)(C)O` [Example 15, (2-(2H-1,2,3-Triazol-2-yl)phenyl)((2R,5R)-5-(4-(2-hydroxypropan-2-yl)-5-isopropyloxazol-2-yl)-2-methylpiperidin-1-yl)methanone] was run?
The IC50 was 10 nM.

And the IC50 [2]?
Its IC50 is 17 nM.

Which IC50 [1] does the source give for `C[C@@H]1CC[C@@H](c2nc(C(C)(C)C)co2)CN1C(=O)c1ccccc1-n1nccn1` [Example 16, (2-(2H-1,2,3-Triazol-2-yl)phenyl)((2R,5R)-5-(4-(tert-butyl)oxazol-2-yl)-2-methylpiperidin-1-yl)methanone] here?
Its IC50 is 290 nM.

What about the IC50 [2] of the same compound?
The IC50 was 60 nM.

With `C[C@@H]1CC[C@@H](c2nc(-c3ccccc3)co2)CN1C(=O)c1ccccc1-n1nccn1` [Example 17, (2-(2H-1,2,3-Triazol-2-yl)phenyl)((2R,5R)-2-methyl-5-(4-phenyloxazol-2-yl)piperidin-1-yl)methanone] as the compound, how does the IC50 [1] read?
The IC50 was 120 nM.

What about the IC50 [2] of the same compound?
The IC50 was 38 nM.

`Cc1oc([C@@H]2CC[C@@H](C)N(C(=O)c3ccccc3-n3nccn3)C2)nc1[C@@H](O)C(F)(F)F` [Example 18, (2-(2H-1,2,3-Triazol-2-yl)phenyl)((2R,5R)-2-methyl-5-(5-methyl-4-((R)-2,2,2-trifluoro-1-hydroxyethyl)oxazol-2-yl)piperidin-1-yl)methanone] was tested. Which IC50 [1] did it give?
The IC50 was 420 nM.

What about the IC50 [2] of the same compound?
Its IC50 is 13.9 nM.

How did the IC50 [1] turn out when `Cc1oc([C@@H]2CC[C@@H](C)N(C(=O)c3ccccc3-n3nccn3)C2)nc1[C@H](O)C(F)(F)F` [Example 19, (2-(2H-1,2,3-triazol-2-yl)phenyl)((2R,5R)-2-methyl-5-(5-methyl-4-((S)-2,2,2-trifluoro-1-hydroxyethyl)oxazol-2-yl)piperidin-1-yl)methanone] was run?
Its IC50 is 790 nM.

And the IC50 [2]?
Its IC50 is 24 nM.

Which results are given for `Cc1oc([C@@H]2CC[C@@H](C)N(C(=O)c3ccccc3C3(C#N)CC3)C2)nc1C(C)(C)O` [Example 20, 1-(2-((2R,5R)-5-(4-(2-Hydroxypropan-2-yl)-5-methyloxazol-2-yl)-2-methylpiperidine-1-carbonyl)phenyl)cyclopropanecarbonitrile]?
IC50 [1]: 425 nM; IC50 [2]: 16.6 nM

For `Cc1oc([C@@H]2CC[C@@H](C)N(C(=O)c3ccccc3C3(C#N)CCOCC3)C2)nc1C(C)(C)O` [Example 21], which IC50 [1] is on record?
The IC50 was over 10000 nM.

What about the IC50 [2] of the same compound?
The IC50 was 500 nM.

Which IC50 [1] does the source give for `CCOc1ncccc1C(=O)N1C[C@H](c2nc(C(C)(C)O)c(C)o2)CC[C@H]1C` [Example 22, (2-Ethoxypyridin-3-yl)((2R,5R)-5-(4-(2-hydroxypropan-2-yl)-5-methyloxazol-2-yl)-2-methylpiperidin-1-yl)methanone] here?
The IC50 was over 10000 nM.

What about the IC50 [2] of the same compound?
Its IC50 is 297 nM.

With `Cc1oc([C@@H]2CC[C@@H](C)N(C(=O)c3cccc4ccnn34)C2)nc1C(C)(C)O` [Example 23, ((2R,5R)-5-(4-(2-Hydroxypropan-2-yl)-5-methyloxazol-2-y1)-2-methylpiperidin-1-yl)(pyrazolo[1,5-a]pyridin-7-yl)methanone] as the compound, how does the IC50 [1] read?
The IC50 was over 10000 nM.

What about the IC50 [2] of the same compound?
The IC50 was 110 nM.

Which results are given for `Cc1oc([C@@H]2CC[C@@H](C)N(C(=O)c3ccccc3-n3ncnn3)C2)nc1C(C)(C)O` [Example 24, (2-(2H-Tetrazol-2-yl)phenyl)((2R,5R)-5-(4-(2-hydroxypropan-2-yl)-5-methyloxazol-2-yl)-2-methylpiperidin-1-yl)methanone]?
IC50 [1]: 3840 nM; IC50 [2]: 13.5 nM

How did the IC50 [1] turn out when `Cc1oc([C@@H]2CC[C@@H](C)N(C(=O)c3ccsc3-n3nccn3)C2)nc1C(C)(C)O` [Example 25, (2-(2H-1,2,3-Triazol-2-yl)thiophen-3-yl)((2R,5R)-5-(4-(2-hydroxypropan-2-yl)-5-methyloxazol-2-yl)-2-methylpiperidin-1-yl)methanone] was run?
The IC50 was 1650 nM.

And the IC50 [2]?
The IC50 was 10.7 nM.

With `Cc1oc([C@@H]2CC[C@@H](C)N(C(=O)c3ccsc3-c3ncccn3)C2)nc1C(C)(C)O` [Example 26, ((2R, 5R)-5-(4-(2-Hydroxypropan-2-yl)-5-methyloxazol-2-yl)-2-methylpiperidin-1-yl)(2-(pyrimidin-2-yl)thiophen-3-yl)methanone] as the compound, how does the IC50 [1] read?
The IC50 was 1360 nM.

And the IC50 [2]?
The IC50 was 42 nM.

`Cc1oc([C@@H]2CC[C@@H](C)N(C(=O)c3ccccc3OC(F)(F)F)C2)nc1C(C)(C)O` [Example 28, ((2R,5R)-5-(4-(2-Hydroxypropan-2-yl)-5-methyloxazol-2-yl)-2-methylpiperidin-l-yl)(2-(trifluoromethoxy)phenyl)methanone] was tested. Which IC50 [1] did it give?
The IC50 was 1400 nM.

What about the IC50 [2] of the same compound?
The IC50 was 14.1 nM.

Which results are given for `Cc1oc([C@@H]2CC[C@@H](C)N(C(=O)c3ccccc3OC(C)C)C2)nc1C(C)(C)O` [Example 29, ((2R,5R)-5-(4-(2-Hydroxypropan-2-yl)-5-methyloxazol-2-yl)-2-methylpiperidin-1-yl)(2-isopropoxyphenyl)methanone]?
IC50 [1]: 2000 nM; IC50 [2]: 20.4 nM

Which results are given for `Cc1oc([C@@H]2CC[C@@H](C)N(C(=O)c3nc(Cl)sc3C(C)C)C2)nc1C(C)(C)O` [Example 32, (2-Chloro-5-isopropylthiazol-4-yl)((2R,5R)-5-(4-(2-hydroxypropan-2-yl)-5-methyloxazol-2-yl)-2-methylpiperidin-1-yl)methanone]?
IC50 [1]: > 10000 nM; IC50 [2]: 160 nM

`COC(=O)c1ccccc1C(=O)N1C[C@H](c2nc(C(C)(C)O)c(C)o2)CC[C@H]1C` [Example 33, Methyl 2-((2R,5R)-5-(4-(2-hydroxypropan-2-yl)-5-methyloxazol-2-yl)-2-methylpiperidine-1-carbonyl)benzoate] was tested. Which IC50 [1] did it give?
Its IC50 is 9980 nM.

What about the IC50 [2] of the same compound?
The IC50 was 23 nM.

With `Cc1oc([C@@H]2CC[C@@H](C)N(C(=O)c3ccccc3-c3ncccn3)C2)nc1C(C)(C)O` [Example 34, ((2R,5R)-5-(4-(2-Hydroxypropan-2-yl)-5-methyloxazol-2-yl)-2-methylpiperidin-1-yl)(2-(pyrimidin-2-yl)phenyl)methanone] as the compound, how does the IC50 [1] read?
Its IC50 is 2200 nM.

What about the IC50 [2] of the same compound?
The IC50 was 56 nM.

What does the source list for `Cc1oc([C@@H]2CC[C@@H](C)N(C(=O)c3ccc(F)cc3-n3nccn3)C2)nc1C(C)(C)O` [Example 37]?
IC50 [1]: 1350 nM; IC50 [2]: 19.1 nM

Which results are given for `Cc1oc([C@@H]2CC[C@@H](C)N(C(=O)c3cccnc3OCC(F)F)C2)nc1C(C)(C)O` [Example 38, (2-(2,2-Difluoroethoxy)pyridin-3-yl)((2R,5R)-5-(4-(2-hydroxypropan-2-yl)-5-methyloxazol-2-yl)-2-methylpiperidin-1-yl)methanone]?
IC50 [1]: ~6400 nM; IC50 [2]: 14.1 nM

Which results are given for `Cc1oc([C@@H]2CC[C@@H](C)N(C(=O)c3cccnc3OCC(F)(F)F)C2)nc1C(C)(C)O` [Example 39, ((2R,5R)-5-(4-(2-Hydroxypropan-2-yl)-5-methyloxazol-2-y1)-2-methylpiperidin-1-yl)(2-(2,2,2-trifluoroethoxy)pyridin-3-yl)methanone]?
IC50 [1]: 2130 nM; IC50 [2]: 17.5 nM

Which results are given for `Cc1oc([C@@H]2CC[C@@H](C)N(C(=O)c3cccnc3OC(C)C)C2)nc1C(C)(C)O` [Example 40, ((2R,5R)-5-(4-(2-Hydroxypropan-2-yl)-5-methyloxazol-2-yl)-2-methylpiperidin-1-yl)(2-isopropoxypyridin-3-yl)methanone]?
IC50 [1]: > 10000 nM; IC50 [2]: 29.5 nM
